Data from patent US20200129472A1, “COMPOSITIONS AND METHODS FOR THE TREATMENT OF PERIPHERAL ARTERY DISEASE” (BOARD OF REGENTS OF THE UNIVERSITY OF NEBRASKA, priority 2017, published 2020).
“Also recorded” adds a separate entry of the source.

System: rat model of peripheral arterial disease (PAD rats, femoral artery occlusion)
Experiment: Exercise intolerance test (motorized treadmill) in PAD rat model after epidural delivery of RTX
Format: in vivo
Text: Catheter-based femoral artery occlusion was created by placing a modified PE50 catheter (its cavity filled with solid agarose) between common iliac artery and left femoral artery to interrupt hindlimb blood supply. The whole procedure is similar to the telemetry implant surgery. Generally, rats were anesthetized using a 2%-3% isoflurane:oxygen mixture. A warm water blanket was used to provide intra-operative heat support to prevent hypothermia. Rats were placed in the prone position and the surgical site (i.e., the femoral area) was cleared of hair, prepared with iodine or chlorhexidine, and the femoral artery was exposed. After a small incision was made, a modified PE50 catheter was placed into the femoral artery and advanced about 3.5 cm to the iliac artery at the aortic bifurcation. The distal end of the femoral artery was ligated with 4-0 Dexon suture. The skin was closed with external interrupted 4-0 or 3-0 prolene suture, which were removed in 10-14 days after the surgery.
Exercise testing for determination of intolerance time was performed in a motorized treadmill equipped with an electrical grid at the end of the lane. The animals were initially acclimated to the treadmill environment at a low speed (13 m/min, 0% grade) for 6 minutes. Then, data was recorded of the exercise duration and distance at the speed of the treadmill of 13 m/minute (0% grade) and increased of 3 m/minute each 2 minutes until exhaustion. Exhaustion was defined operationally as the time at which the rat was unable, or refused, to maintain its running speed for more than 15 seconds despite encouragement by mild electrical stimulation. The maximal speed and running distance were recorded when exhaustion occurred. Two methods were used to measure the exercise intolerance time in sham, PAD and PAD+RTX rats. With the first method, individual rats were run with 90%, 75%, 50% and 25% of its own maximal speed. The exercise intolerance time corresponding to individual running intensity was recorded and compared among groups. With the second method, a fixed running speed (37 m/minute) was used to run all rats among groups to get their exercise intolerance time.
To deplete skeletal muscle afferent neuron soma (L4-L5 DRGs), rats were anesthetized using 2%-3% isoflurane:oxygen mixture. Rats were placed in the prone position and the surgical site was cleared of hair, prepared with iodine or chlorhexidine. A small midline incision was made in the region of the T13-L1 thoracic vertebrae. Following dissection of the superficial muscles, a small hole (approximately 3 mm*3 mm) was made in the left side of T13 vertebral (ipsilateral). A polyethylene catheter (PE-10) was inserted into the subarachnoid space via left hole and gently advanced about 4.0 cm to the left L5 level in which the first injection (6 μg/ml, 10 μl) was made at a very slow speed to minimize the diffusion of RTX. Then the catheter was pulled back to left L4 to perform another injection (10 μl/each). Then the catheter was held for 15 minutes and then withdrawn. After that, silicon gels were used to seal the hole in the T13 vertebral. The skin overlying the muscle was closured by 3-0 polypropylene suture. Simple interrupted sutures were used to close the skin. Skin suture were removed 10-14 days after surgery. Betadine was applied to the wound and the rats were allowed to recover from the anesthesia.
The therapeutic efficacy of resiniferatoxin was tested in a in a rat model of peripheral arterial disease. As explained above, resiniferatoxin was administered to PAD rats by lumbar epidural administration at the time of femoral arterial occlusion. The resiniferatoxin (6 μg/ml, 10 μl/per ganglia) was injected between the ipsilateral L4 and L5 vertebrae into the epidural space at a concentration of 10 μl per ganglion. Healthy rats with sham treatment were also used as a positive control.

C=C(C)[C@]12C[C@@H](C)[C@@]34O[C@@](Cc5ccccc5)(OC1C3C=C(COC(=O)Cc1ccc(O)c(OC)c1)C[C@]1(O)C(=O)C(C)=CC41)O2 (stereo partly drawn) [resiniferatoxin, [(1R,6R,13R,15R,17R)-13-benzyl-6-hydroxy-4,17-dimethyl-5-oxo-15-(prop-1-en-2-yl)-12,14,18-trioxapentacyclo[11.4.1.0^1,10.0^2,6.0^11,15]octadeca-3,8-dien-8-yl]methyl 2-(4-hydroxy-3-methoxyphenyl)acetate]
ability to run for longer distances at a higher rate (time running at percent maximum intensity) (RTX 6 μg/ml, 10 μl per ganglion, lumbar epidural L4/L5, at the time of femoral arterial occlusion, FIG. 1D): increased ability to run for longer distances at a higher rate
ability to run at 37 m/minute (time run at 37 m/min) (RTX 6 μg/ml, 10 μl per ganglion, lumbar epidural L4/L5, at the time of femoral arterial occlusion, fixed speed 37 m/minute, FIG. 1C): increased ability to run at 37 m/minute
running distance (RTX 6 μg/ml, 10 μl per ganglion, lumbar epidural L4/L5, at the time of femoral arterial occlusion, vs PAD+control, FIG. 1A): increased running distances
maximal running speed (RTX 6 μg/ml, 10 μl per ganglion, lumbar epidural L4/L5, at the time of femoral arterial occlusion, vs PAD+control, FIG. 1B): increased maximal running speed
exercise limitations associated with PAD (RTX administered 4 weeks after femoral arterial occlusion (after onset of PAD), before vs after treatment, FIG. 2): reduces exercise limitations; also recorded: reduced the exercise limitations
exercise limitations associated with PAD (RTX given at the time of femoral arterial occlusion, FIG. 1): reduces the exercise limitations
duration of the statistically significant improvements in exercise performance (RTX given at the time of femoral arterial occlusion, time after PAD surgery): lasted for months
